Laboratory results reported in patent publication US8309718B2, “4-pyrazolyl-N-arylpyrimidin-2-amines and 4-pyrazolyl-N-heteroarylpyrimidin-2-amines as janus kinase inhibitors” (Incyte Corporation, priority 2007, dated 2012).

Biological target: T1, human JAK2 (Homo sapiens, UniProt O60674)
T1 construct: JAK2 (a.a. 828-1132); His tag (N); made in house; host or cells: insect cells (baculovirus)
Experiment: In vitro JAK kinase assay (HTRF, phosphorylation of biotinylated peptide)
Assay type: biochemical
Conditions: catalytic domain a.a. 828-1132, 30 μM ATP, 500 nM peptide, room temperature 1 hr; read-out: JAK-2 IC50
Outline: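 His-tagged human JAK2 catalytic domain (a.a. 828-1132), baculovirus/insect-cell expressed; phosphorylation of 500 nM biotinylated peptide at 30 μM ATP in 50 mM Tris pH 7.8, 100 mM NaCl, 5 mM DTT, 0.01% BSA. 1 h at room temperature, EDTA stop, HTRF read (Eu-Py20/SA-APC); IC50.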

T1 sequence (O60674 828-1132): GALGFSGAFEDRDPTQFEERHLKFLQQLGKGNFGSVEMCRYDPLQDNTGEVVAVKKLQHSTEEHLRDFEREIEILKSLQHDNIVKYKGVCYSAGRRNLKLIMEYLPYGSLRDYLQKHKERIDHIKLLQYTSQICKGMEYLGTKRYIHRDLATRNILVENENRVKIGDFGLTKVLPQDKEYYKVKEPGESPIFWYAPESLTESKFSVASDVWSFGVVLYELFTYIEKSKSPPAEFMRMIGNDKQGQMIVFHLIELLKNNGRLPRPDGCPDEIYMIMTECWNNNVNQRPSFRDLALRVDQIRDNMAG

IC50, < 100 nM:
N#CCC1(n2cc(-c3ccnc(Nc4ccc(N5CCOCC5)cc4)n3)cn2)CCN(S(=O)(=O)C2CC2)CC1 [Example 29, 2-(1-(cyclopropylsulfonyl)-4-(4-(2-(4-morpholinophenylamino)pyrimidin-4-yl)-1H-pyrazol-1-yl)piperidin-4-yl)acetonitrile]
CC(=O)Nc1ccc(Nc2nccc(-c3cnn(C4(CC#N)CN(S(=O)(=O)C5CC5)C4)c3)n2)cc1 [Example 19, N-(4-(4-(1-(3-(cyanomethyl)-1-(cyclopropylsulfonyl)azetidin-3-yl)-1H-pyrazol-4-yl)pyrimidin-2-ylamino)phenyl)acetamide]
N#CCC(C1CCC1)n1cc(-c2ccnc(Nc3ccc(-n4cccn4)cc3)n2)cn1 (racemic) [Example 173, 3-(4-(2-(4-(1H-pyrazol-1-yl)phenylamino)pyrimidin-4-yl)-1H-pyrazol-1-yl)-3-cyclobutylpropanenitrile]
N#CCC(C1CCOCC1)n1cc(-c2ccnc(Nc3ccc(C(=O)N4CC[C@H](C#N)C4)cc3)n2)cn1 (mixture of isomers) [Example 317, (3S)-1-{4-[(4-{1-[2-cyano-1-(tetrahydro-2H-pyran-4-yl)ethyl]-1H-pyrazol-4-yl}pyrimidin-2-yl)amino]benzoyl}pyrrolidine-3-carbonitrile]
COC1CCN(C(=O)c2ccc(Nc3nccc(-c4cnn(C(CC#N)C5CCOCC5)c4)n3)cc2)CC1 (racemic) [Example 313, 3-{4-[2-({4-[(4-methoxypiperidin-1-yl)carbonyl]phenyl}amino)pyrimidin-4-yl]-1H-pyrazol-1-yl}-3-(tetrahydro-2H-pyran-4-yl)propanenitrile]
CCCN(CC1CC1)C(=O)c1ccc(Nc2nccc(-c3cnn(C(CC#N)C4CCCC4)c3)n2)cc1 (racemic) [Example 125, 4-(4-(1-(2-cyano-1-cyclopentylethyl)-1H-pyrazol-4-yl)pyrimidin-2-ylamino)-N-(cyclopropylmethyl)-N-propylbenzamide]
N#CCC(CC1CCN(C(=O)c2ccc(F)cc2F)CC1)n1cc(-c2ccnc(Nc3ccccc3)n2)cn1 (racemic) [Example 4, 4-(1-(2,4-difluorobenzoyl)piperidin-4-yl)-3-(4-(2-(phenylamino)pyrimidin-4-yl)-1H-pyrazol-1-yl)butanenitrile]
N#CCC(C1CCCC1)n1cc(-c2ccnc(Nc3cccc(C(=O)NC4(CO)CCCC4)c3)n2)cn1 (racemic) [Example 165, 3-(4-(1-(2-cyano-1-cyclopentylethyl)-1H-pyrazol-4-yl)pyrimidin-2-ylamino)-N-(1-(hydroxymethyl)cyclopentyl)benzamide]
N#CCC1(n2cc(-c3ccnc(Nc4ccc(C(=O)N5CCC5)cc4)n3)cn2)CC(C#N)C1 (single isomer, unassigned) [Example 292, 3-(4-(2-(4-(azetidine-1-carbonyl)phenylamino)pyrimidin-4-yl)-1H-pyrazol-1-yl)-3-(cyanomethyl)cyclobutanecarbonitrile]
N#CCC1(n2cc(-c3ccnc(Nc4ccc(C(=O)NCCO)cc4)n3)cn2)CCN(S(=O)(=O)C2CC2)CC1 [Example 31, 4-(4-(1-(4-(cyanomethyl)-1-(cyclopropylsulfonyl)piperidin-4-yl)-1H-pyrazol-4-yl)pyrimidin-2-ylamino)-N-(2-hydroxyethyl)benzamide]
CCS(=O)(=O)Nc1cccc(Nc2nccc(-c3cnn(C(CC#N)C4CCCC4)c3)n2)c1 (racemic) [Example 114, N-(3-(4-(1-(2-cyano-1-cyclopentylethyl)-1H-pyrazol-4-yl)pyrimidin-2-ylamino)phenyl)ethanesulfonamide]
COc1cnc(Nc2cccc(C(=O)N3CC[C@H](C#N)C3)c2)nc1-c1cnn(C(CC#N)C2CC2)c1 (mixture of isomers) [Example 327, (3S)-1-[3-({4-[1-(2-cyano-1-cyclopropylethyl)-1H-pyrazol-4-yl]-5-methoxypyrimidin-2-yl}amino)benzoyl]pyrrolidine-3-carbonitrile]
Cc1cnc(Nc2ccc(C(N)=O)cc2)nc1-c1cnn(C(CC#N)C2CCCC2)c1 (racemic) [Example 70, 4-(4-(1-(2-cyano-1-cyclopentylethyl)-1H-pyrazol-4-yl)-5-methylpyrimidin-2-ylamino)benzamide]
N#CCC(C1CCCC1)n1cc(-c2ccnc(Nc3ccc(N4CCOCC4=O)cc3)n2)cn1 (racemic) [Example 98, 3-cyclopentyl-3-(4-(2-(4-(3-oxomorpholino)phenylamino)pyrimidin-4-yl)-1H-pyrazol-1-yl)propanenitrile]
Cc1cnc(Nc2ccc(NC(=O)CN3CCCC3)cc2)nc1-c1cnn(C(CC#N)C2CCCC2)c1 (racemic) [Example 91, N-(4-(4-(1-(2-cyano-1-cyclopentylethyl)-1H-pyrazol-4-yl)-5-methylpyrimidin-2-ylamino)phenyl)-2-(pyrrolidin-1-yl)acetamide]
N#CCC(C1CCCC1)n1cc(-c2ccnc(Nc3cccc(NC(=O)CN4CCC(O)CC4)c3)n2)cn1 (racemic) [Example 239, N-(3-(4-(1-(2-cyano-1-cyclopentylethyl)-1H-pyrazol-4-yl)pyrimidin-2-ylamino)phenyl)-2-(4-hydroxypiperidin-1-yl)acetamide]
CC(=O)N1CCC(C(CC#N)n2cc(-c3ccnc(Nc4ccc(N5CCOCC5)cc4)n3)cn2)CC1 (racemic) [Example 26, 3-(1-acetylpiperidin-4-yl)-3-(4-(2-(4-morpholinophenylamino)pyrimidin-4-yl)-1H-pyrazol-1-yl)propanenitrile]
N#CCC1(n2cc(-c3ccnc(Nc4ccc(N5CCOCC5)cc4)n3)cn2)CC(C#N)C1 (single isomer, unassigned) [Example 248, 3-(cyanomethyl)-3-(4-(2-(4-morpholinophenylamino)pyrimidin-4-yl)-1H-pyrazol-1-yl)cyclobutanecarbonitrile]
N#CCC(C1CCC1)n1cc(-c2ccnc(Nc3ccc(N4CCOCC4=O)cc3)n2)cn1 (racemic) [Example 175, 3-cyclobutyl-3-(4-(2-(4-(3-oxomorpholino)phenylamino)pyrimidin-4-yl)-1H-pyrazol-1-yl)propanenitrile]
Cn1ccc(S(=O)(=O)Nc2ccc(Nc3nccc(-c4cnn(C(CC#N)C5CCCC5)c4)n3)cc2)n1 (racemic) [Example 190, N-(4-(4-(1-(2-cyano-1-cyclopentylethyl)-1H-pyrazol-4-yl)pyrimidin-2-ylamino)phenyl)-1-methyl-1H-pyrazole-3-sulfonamide]
Cn1ccc(S(=O)(=O)N2CCC(CC(CC#N)n3cc(-c4ccnc(Nc5ccc(N6CCOCC6)cc5)n4)cn3)CC2)n1 (racemic) [Example 55, 4-(1-(1-methyl-1H-pyrazol-3-ylsulfonyl)piperidin-4-yl)-3-(4-(2-(4-morpholinophenylamino)pyrimidin-4-yl)-1H-pyrazol-1-yl)butanenitrile]
